# Source: ChEMBL document CHEMBL4414672, “Synthesis of certain benzothieno[3,2-d]pyrimidine derivatives as a selective SIRT2 inhibitors” (Eur J Med Chem, 2020)
# Experiments:
# Format in all cases: functional
# [1] = tested on: OVCAR-8; assay: Growth inhibition of human OVCAR8 cells at 10^-5 M incubated for 48 hrs by sulforhodamine B assay; details: OVCAR-8, 48 h, read-out: GI
# [2] = tested on: SF-539; assay: Growth inhibition of human SF539 cells at 10^-5 M incubated for 48 hrs by sulforhodamine B assay; details: SF-539, 48 h, read-out: GI
# [3] = tested on: 786-0; assay: Growth inhibition of human 786-0 cells at 10^-5 M incubated for 48 hrs by sulforhodamine B assay; details: 786-0, 48 h, read-out: GI
# [4] = tested on: CAKI-1; assay: Growth inhibition of human Caki1 cells at 10^-5 M incubated for 48 hrs by sulforhodamine B assay; details: CAKI-1, 48 h, read-out: GI
# [5] = tested on: HCT-15; assay: Growth inhibition of human HCT15 cells at 10^-5 M incubated for 48 hrs by sulforhodamine B assay; details: HCT-15, 48 h, read-out: GI
# [6] = tested on: TK-10; assay: Growth inhibition of human TK10 cells at 10^-5 M incubated for 48 hrs by sulforhodamine B assay; details: TK-10, 48 h, read-out: GI
# [7] = tested on: UACC-257; assay: Growth inhibition of human UACC257 cells at 10^-5 M incubated for 48 hrs by sulforhodamine B assay; details: UACC-257, 48 h, read-out: GI
# [8] = tested on: SW-620; assay: Growth inhibition of human SW620 cells at 10^-5 M incubated for 48 hrs by sulforhodamine B assay; details: SW-620, 48 h, read-out: GI
# [9] = tested on: HOP-62; assay: Growth inhibition of human HOP62 cells at 10^-5 M incubated for 48 hrs by sulforhodamine B assay; details: HOP-62, 48 h, read-out: GI
# [10] = tested on: NCI-H226; assay: Growth inhibition of human NCI-H226 cells at 10^-5 M incubated for 48 hrs by sulforhodamine B assay; details: NCI-H226, 48 h, read-out: GI
# [11] = tested on: OVCAR-5; assay: Growth inhibition of human OVCAR5 cells at 10^-5 M incubated for 48 hrs by sulforhodamine B assay; details: OVCAR-5, 48 h, read-out: GI
# [12] = tested on: EKVX; assay: Growth inhibition of human EKVX cells at 10^-5 M incubated for 48 hrs by sulforhodamine B assay; details: read-out: GI
# [13] = tested on: RXF 393; assay: Growth inhibition of human RXF393 cells at 10^-5 M incubated for 48 hrs by sulforhodamine B assay; details: RXF 393, 48 h, read-out: GI
# [14] = tested on: HOP-92; assay: Growth inhibition of human HOP92 cells at 10^-5 M incubated for 48 hrs by sulforhodamine B assay; details: HOP-92, 48 h, read-out: GI
# [15] = tested on: T47D; assay: Growth inhibition of human T47D cells at 10^-5 M incubated for 48 hrs by sulforhodamine B assay; details: read-out: GI
# [16] = tested on: A549; assay: Growth inhibition of human A549/ATCC cells at 10^-5 M incubated for 48 hrs by sulforhodamine B assay; details: A549, 48 h, read-out: GI
# [17] = tested on: SF-295; assay: Growth inhibition of human SF295 cells at 10^-5 M incubated for 48 hrs by sulforhodamine B assay; details: SF-295, 48 h, read-out: GI
# [18] = tested on: HCC 2998; assay: Growth inhibition of human HCC2998 cells at 10^-5 M incubated for 48 hrs by sulforhodamine B assay; details: HCC 2998, 48 h, read-out: GI
# [19] = tested on: MOLT-4; assay: Growth inhibition of human MOLT4 cells at 10^-5 M incubated for 48 hrs by sulforhodamine B assay; details: MOLT-4, 48 h, read-out: GI
# [20] = tested on: NCI-H460; assay: Growth inhibition of human NCI-H460 cells at 10^-5 M incubated for 48 hrs by sulforhodamine B assay; details: NCI-H460, 48 h, read-out: GI
# [21] = tested on: SK-MEL-28; assay: Growth inhibition of human SK-MEL-28 cells at 10^-5 M incubated for 48 hrs by sulforhodamine B assay; details: SK-MEL-28, 48 h, read-out: GI
# [22] = tested on: SR; assay: Growth inhibition of human SR cells at 10^-5 M incubated for 48 hrs by sulforhodamine B assay; details: read-out: GI
# [23] = tested on: LOX IMVI; assay: Growth inhibition of human LOXIMVI cells at 10^-5 M incubated for 48 hrs by sulforhodamine B assay; details: read-out: GI
# [24] = tested on: COLO 205; assay: Growth inhibition of human COLO205 cells at 10^-5 M incubated for 48 hrs by sulforhodamine B assay; details: COLO 205, 48 h, read-out: GI
# [25] = tested on: MDA-MB-231; assay: Growth inhibition of human MDA-MB-231 cells at 10^-5 M incubated for 48 hrs by sulforhodamine B assay; details: MDA-MB-231, 48 h, read-out: GI
# [26] = tested on: SNB-75; assay: Growth inhibition of human SNB75 cells at 10^-5 M incubated for 48 hrs by sulforhodamine B assay; details: SNB-75, 48 h, read-out: GI
# [27] = tested on: KM12; assay: Growth inhibition of human KM12 cells at 10^-5 M incubated for 48 hrs by sulforhodamine B assay; details: KM12, 48 h, read-out: GI
# [28] = tested on: DU-145; assay: Growth inhibition of human DU145 cells at 10^-5 M incubated for 48 hrs by sulforhodamine B assay; details: DU-145, 48 h, read-out: GI
# [29] = tested on: M14; assay: Growth inhibition of human M14 cells at 10^-5 M incubated for 48 hrs by sulforhodamine B assay; details: M14, 48 h, read-out: GI
# [30] = tested on: MDA-MB-435; assay: Growth inhibition of human MDA-MB-435 cells at 10^-5 M incubated for 48 hrs by sulforhodamine B assay; details: MDA-MB-435, 48 h, read-out: GI
# [31] = tested on: U-251; assay: Growth inhibition of human U251 cells at 10^-5 M incubated for 48 hrs by sulforhodamine B assay; details: U-251, 48 h, read-out: GI
# [32] = tested on: SK-OV-3; assay: Growth inhibition of human SKOV3 cells at 10^-5 M incubated for 48 hrs by sulforhodamine B assay; details: SK-OV-3, 48 h, read-out: GI
# [33] = tested on: Hs-578T; assay: Growth inhibition of human Hs 578T cells at 10^-5 M incubated for 48 hrs by sulforhodamine B assay; details: read-out: GI
# [34] = tested on: UACC-62; assay: Growth inhibition of human UACC62 cells at 10^-5 M incubated for 48 hrs by sulforhodamine B assay; details: UACC-62, 48 h, read-out: GI
# [35] = tested on: HCT-116; assay: Growth inhibition of human HCT116 cells at 10^-5 M incubated for 48 hrs by sulforhodamine B assay; details: HCT-116, 48 h, read-out: GI
# [36] = tested on: SK-MEL-5; assay: Growth inhibition of human SK-MEL-5 cells at 10^-5 M incubated for 48 hrs by sulforhodamine B assay; details: SK-MEL-5, 48 h, read-out: GI
# [37] = tested on: HL-60(TB); assay: Growth inhibition of human HL-60(TB) cells at 10^-5 M incubated for 48 hrs by sulforhodamine B assay; details: HL-60, 48 h, read-out: GI
# [38] = tested on: IGROV-1; assay: Growth inhibition of human IGROV1 cells at 10^-5 M incubated for 48 hrs by sulforhodamine B assay; details: IGROV-1, 48 h, read-out: GI
Structure (SMILES),inhibition of growth at 10 µM [1] [%],inhibition of growth at 10 µM [2] [%],inhibition of growth at 10 µM [3] [%],inhibition of growth at 10 µM [4] [%],inhibition of growth at 10 µM [5] [%],inhibition of growth at 10 µM [6] [%],inhibition of growth at 10 µM [7] [%],inhibition of growth at 10 µM [8] [%],inhibition of growth at 10 µM [9] [%],inhibition of growth at 10 µM [10] [%],inhibition of growth at 10 µM [11] [%],inhibition of growth at 10 µM [12] [%],inhibition of growth at 10 µM [13] [%],inhibition of growth at 10 µM [14] [%],inhibition of growth at 10 µM [15] [%],inhibition of growth at 10 µM [16] [%],inhibition of growth at 10 µM [17] [%],inhibition of growth at 10 µM [18] [%],inhibition of growth at 10 µM [19] [%],inhibition of growth at 10 µM [20] [%],other results
O=[N+]([O-])c1cccc(C2c3sc4ccc(Cl)cc4c3N=C3NN=NN32)c1 (stereo unspecified),-4.72,-8.51,9.33,-15.7,-16,35.8,3.87,-1.74,0.43,11.5,-6.97,8.75,0,12.8,-8.85,9.64,3.68,1.22,-1.88,6.19,inhibition of growth at 10 µM [21]: 3.38%; inhibition of growth at 10 µM [22]: -7.25%; inhibition of growth at 10 µM [23]: -0.19%; inhibition of growth at 10 µM [24]: -7.9%; inhibition of growth at 10 µM [25]: -4.1%; inhibition of growth at 10 µM [26]: -9.67%; inhibition of growth at 10 µM [27]: -1.99%; inhibition of growth at 10 µM [28]: 22%; inhibition of growth at 10 µM [29]: -10.9%; inhibition of growth at 10 µM [30]: 2.65%; inhibition of growth at 10 µM [31]: 3.96%; inhibition of growth at 10 µM [32]: 6.39%; inhibition of growth at 10 µM [33]: -11.2%; inhibition of growth at 10 µM [34]: 21.3%; inhibition of growth at 10 µM [35]: -7.64%; inhibition of growth at 10 µM [36]: -10.9%; inhibition of growth at 10 µM [37]: -9.93%; inhibition of growth at 10 µM [38]: -11.1%
O=[N+]([O-])c1cccc(C2NC(N3CCOCC3)=Nc3c2sc2ccc(Cl)cc32)c1 (stereo unspecified),-3,6.94,-5.37,27.7,-7.82,-10.7,-6.32,-1.57,9.52,14.4,-1.26,16.4,-8.09,10.1,21.6,-1.35,-4.89,-6.02,1.35,4.82,inhibition of growth at 10 µM [21]: -22.1%; inhibition of growth at 10 µM [22]: 1.5%; inhibition of growth at 10 µM [23]: 3.74%; inhibition of growth at 10 µM [24]: -6.02%; inhibition of growth at 10 µM [25]: 18.3%; inhibition of growth at 10 µM [26]: 10.7%; inhibition of growth at 10 µM [27]: 4.2%; inhibition of growth at 10 µM [28]: -13.7%; inhibition of growth at 10 µM [29]: -1.17%; inhibition of growth at 10 µM [30]: -6.59%; inhibition of growth at 10 µM [31]: 1.11%; inhibition of growth at 10 µM [32]: -6.18%; inhibition of growth at 10 µM [33]: 1.47%; inhibition of growth at 10 µM [34]: 8.77%; inhibition of growth at 10 µM [35]: 6.8%; inhibition of growth at 10 µM [36]: 4.38%; inhibition of growth at 10 µM [37]: -10.4%; inhibition of growth at 10 µM [38]: 25%
